Measurements as given in ChEMBL document CHEMBL1159369, “Isolation, structure, and HIV-1 integrase inhibitory activity of Cytosporic acid, a fungal metabolite produced by a Cytospora sp” (J Nat Prod, 2003).
Calls of active or inactive are those of the source. The calls are words filed in the database; no cut-off is given here.

Assays:
[1] = target: Human immunodeficiency virus type 1 integrase (Human immunodeficiency virus 1) (UniProt Q7ZJM1); test: Inhibition of HIV1 integrase strand transfer activity at 200 uM
Sequence of Human immunodeficiency virus type 1 integrase (Human immunodeficiency virus 1) (Q7ZJM1 as listed by the source): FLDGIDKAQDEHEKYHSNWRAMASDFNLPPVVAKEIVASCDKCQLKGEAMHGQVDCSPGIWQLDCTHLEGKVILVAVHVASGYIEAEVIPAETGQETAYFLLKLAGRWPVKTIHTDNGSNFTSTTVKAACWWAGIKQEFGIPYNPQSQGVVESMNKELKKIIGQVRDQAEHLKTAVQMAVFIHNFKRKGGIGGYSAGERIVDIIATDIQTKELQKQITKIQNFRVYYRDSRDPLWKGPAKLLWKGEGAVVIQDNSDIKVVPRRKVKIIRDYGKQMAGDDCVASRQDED

[2] = target: Human immunodeficiency virus type 1 integrase (Human immunodeficiency virus 1, UniProt Q7ZJM1); test: Inhibition of HIV1 integrase strand transfer activity
Sequence of Human immunodeficiency virus type 1 integrase (Q7ZJM1 whole entry): as the sequence (Q7ZJM1 as listed by the source) above

Row | Activity [1] | IC50 [2] [µM] | Compound
1 | inactive |  | CCCCCC[C@@H](C)C1=C(O)C(=O)[C@@H]2[C@H](O)[C@H](C)C[C@H](O)[C@H]2[C@]1(C)C(=O)CCO
2 |  | 20 | CCCCCC[C@@H](C)C1=C(O)C(=O)[C@@H]2[C@H](O)[C@H](C)C[C@H](O)[C@H]2[C@]1(C)C(=O)/C=C\O [AUSTRALIFUNGIN]
3 |  | 20 | CCCC[C@@H](C)C1=C(O)C(=O)[C@@H]2C[C@H](C)C[C@H](C(=O)O)[C@H]2[C@]1(C)C(=O)CCO [CYTOSPORIC ACID]
